Target: T1, human G6PD (glucose-6-phosphate dehydrogenase) (Homo sapiens, UniProt P11413)
T1 construct: functional as dimer or tetramer
Assay: growth rate of humanized E. coli (LEICA), Hill fit
Assay type: cell-based
Conditions: live E. coli Δpgi Δzwf expressing human G6PD, M9 glucose, 37 °C, 1% DMSO; growth read-out, no effect on E. coli Δpgi

T1 sequence (P11413 2-515): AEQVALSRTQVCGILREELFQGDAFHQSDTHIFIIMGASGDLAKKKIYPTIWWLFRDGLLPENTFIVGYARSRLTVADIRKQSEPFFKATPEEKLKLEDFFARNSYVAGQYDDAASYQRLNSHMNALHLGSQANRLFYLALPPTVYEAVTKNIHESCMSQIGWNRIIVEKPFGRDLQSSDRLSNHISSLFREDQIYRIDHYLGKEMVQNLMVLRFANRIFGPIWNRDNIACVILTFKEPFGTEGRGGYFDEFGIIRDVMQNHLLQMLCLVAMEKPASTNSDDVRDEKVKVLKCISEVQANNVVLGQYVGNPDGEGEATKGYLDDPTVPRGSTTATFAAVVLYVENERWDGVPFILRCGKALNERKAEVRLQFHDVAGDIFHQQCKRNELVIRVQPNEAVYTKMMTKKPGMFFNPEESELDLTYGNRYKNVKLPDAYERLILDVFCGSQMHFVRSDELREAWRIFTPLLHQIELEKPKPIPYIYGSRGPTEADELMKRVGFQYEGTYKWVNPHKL

- IC50: 111 µM
Compound: N#Cc1cc(Nc2ncc3c(n2)CCCCC3=O)cs1 [G6PDi-1]

From publication PMC12443593, “A live bacteria enzyme assay for identification of human disease mutations and drug screening” (Nature Biomedical Engineering, 2025)
